# Measured values reported in US20230286995A1, “METABOLICALLY STABLE PYRIMIDINYL DIHYDROQUINOXALINONES AS TUBULIN POLYMERIZATION INHIBITORS” (UNIVERSITY OF TENNESSEE RESEARCH FOUNDATION, priority 2022, published 2023).
# Entries after “also recorded” stand apart in the source; their conditions may differ. Where two headings read alike, the source gives them in different places.
# Assays:
# M14/LCC6MDR1 = experiment: Cytotoxicity assay (MTS, 72 h); type: cell-based; settings: Homo sapiens, read-out: IC50 ± SEM (nM) M14/LCC6MDR1
# DU-145/VxR = experiment: Cytotoxicity assay (MTS, 72 h); type: cell-based; settings: Homo sapiens, DU-145, read-out: IC50 ± SEM (nM) DU-145/VXR
# in vitro [1] = settings: mouse, liver microsomes
# A375/TxR xenografts = experiment: In vivo A375/TxR melanoma xenograft model; set-up: species or system NSG mice; settings: for decrease in tumor weight vs vehicle group / tumor reduction / tumor growth inhibition vs control: 2 times per week
# RPMI-7951 = experiment: Cytotoxicity assay (MTS, 72 h); type: cell-based; settings: Homo sapiens, Table 1, read-out: IC50 (nM) Melanoma RPMI-7951
# A375/TxR cells [2] = experiment: Wound healing (scratch) assay; type: cell-based, human
# Procedure: Scratch-wound assay: The anti-migration effect of 5v was determined by a scratch-wound assay using an IncuCyte S3 live-cell imager as previously reported. After overnight incubation, the monolayers of A375/TxR cells were scratched by a WoundMaker (Essen BioScience) and the cells were treated with 5v (0.5 nM, 1 nM, 2 nM, and 5 nM) for 48 h. The wounds were imaged every 2 h by IncuCyte and the relative wound density was calculated by IncuCyte Scratch Wound Software Module. The assay was performed in quadruplicate.
# MDA-MB-468 = experiment: Cytotoxicity assay (MTS, 72 h); type: cell-based, human; settings: Homo sapiens, MDA-MB-468; Table 1; read-out: IC50 (nM) Breast MDA-MB-468
# A375/TxR cells [3] = experiment: Clonogenic assay; type: cell-based, human; settings: 7 days
# Procedure: In case of clonogenic assay, A375/TxR cells were seeded in 6-well plates at very low concentration (1000 cells/well). […] Medium was replaced with fresh drug once during the treatment. Cells were then fixed with cold methanol and stained with 0.5% crystal violet. Colony area density was quantified using the Keyence Hybrid Cell Count module.
# Cell proliferation inhibition assay: The cell proliferation inhibitory effects of tested compounds were first determined through MTS assay as previously described. In short, 3000 to 7500 cells were added to a 96-well cell culture plate followed by the treatment of the test compounds (0.1 nM to 3 μM) in quadruplicate after seeding and overnight incubation. After 72 hours of treatment, MTS (Promega) was added to the wells and the absorbance was measured at […] after incubating for 1.5 to 2 h. […] Briefly, A375/TxR cells (1000 cells/well) were treated with growth medium containing 0.5 nM, 1 nM, or 2 nM of 5v and incubated for over 7 days (the incubation medium was changed every 3 days). After fixing and staining with 0.5% crystal violet, the cell colonies were quantified by the Hybrid Counting module of the Keyence BZ-X700 microscope. The assay was performed in triplicate.
# [4] = Microsomal stability assay; settings: Table 3; liver microsomes; mean (% CV)
# in vitro [5] = settings: human, liver microsomes
# A375/TxR = experiment: Cytotoxicity assay (MTS, 72 h); type: cell-based; settings: Homo sapiens, read-out: IC50 ± SEM (nM) A375/TxR
# MDA-MB-231 = experiment: Cytotoxicity assay (MTS, 72 h); type: cell-based; settings: Homo sapiens
# logP = type: physicochemical; settings: Table 1; method not described
# MDA-MB-231/TxR = experiment: Cytotoxicity assay (MTS, 72 h); type: cell-based; settings: Homo sapiens
# M14 = experiment: Cytotoxicity assay (MTS, 72 h); settings: Homo sapiens
# [6] = tested on: taxane-resistant melanoma, breast, and lung cancer cells; experiment: Cytotoxicity, regular and taxane-resistant lines of Table 2; type: cell-based; settings: Homo sapiens
# PANC-1 = experiment: Cytotoxicity assay (MTS, 72 h); type: cell-based; settings: Homo sapiens
# Procedure: Mia PaCa-2 and PANC-1 cells were seeded in 96-well plates at 4000 and 5000 cells per well, respectively.
# Cytotoxicity Assay. […] Each experiment consisted of four replicates.
# [7] = tested on: human melanoma and breast cancer cell lines; experiment: Cytotoxicity, all tested cell lines of Table 1; type: cell-based; settings: Homo sapiens, melanoma and breast lines of Table 1; read-out: IC50 values, range over all tested cell lines
# MDA-MB-231/VxR = experiment: Cytotoxicity assay (MTS, 72 h); type: cell-based; settings: Homo sapiens
# MDA-MB-453 = experiment: Cytotoxicity assay (MTS, 72 h); type: cell-based, human; settings: Homo sapiens, MDA-MB-453
# [8] = tested on: A2780/TxR ovarian cancer xenografts; experiment: Orthotopic A2780/TxR ovarian cancer xenograft model; settings: 5m 1 mg/kg IV; Compound 17ya 20 mg/kg PO; 3 weeks
# [9] = H&E and anti-human mitochondria IHC
# [10] = MDA-MB-231, read-out: IC50 in MDA-MB-231 parental line
# [11] = MDA-MB-231, read-out: IC50 ± SEM (nM) MDA-MB-231, Table 2
# [12] = M14, read-out: IC50 (nM) Melanoma M14
# [13] = M14, read-out: IC50 ± SEM (nM) M14
# [14] = taxane-resistant melanoma, breast, and lung cancer cells, read-out: IC50 values, range against taxane-resistant cells
# [15] = MDA-MB-231, read-out: IC50 ± SEM (nM) MDA-MB-231/VXR
# [16] = Table 1, read-out: IC50 (nM) Breast MDA-MB-453
smiles,measurement,setting,value
"CCNc1nc2c(c(N3CC(=O)Nc4cc(OC)ccc43)n1)CCC2 [Compound 5v, 4-(2-(ethylamino)-6,7-dihydro-5H-cyclopenta[d]pyrimidin-4-yl)-7-methoxy-3,4-dihydroquinoxalin-2(1H)-one]",IC50,"M14/LCC6MDR1; Table 2, multidrug-resistant",0.3 ± 0.03 nM
same,IC50,DU-145/VxR,1 ± 0.1 nM
same,half-life at 1 μg/mL,in vitro [1],6.33 min
same,microsomal CLint at 1 μg/mL,in vitro [1],109 µL/min/mg
same,decrease in tumor weight vs vehicle group,A375/TxR xenografts; 2 mg/kg IV,47.4%
same,tumor reduction / tumor growth inhibition vs control,A375/TxR xenografts; 2 mg/kg IV,62.3%
same,"toxicity to major organs (heart, kidney, spleen), H&E","A375/TxR xenografts; 2 mg/kg or 4 mg/kg, three weeks",no obvious damage to the major organs; also recorded: no toxicity to major organs
same,"cleaved caspase-3 in tumors, IHC","A375/TxR xenografts; 2 mg/kg, 4 mg/kg",significantly increased the proportion of cleaved caspase-3 positive cells
same,decrease in tumor weight vs vehicle group,A375/TxR xenografts; 4 mg/kg IV,59.9%
same,tumor reduction / tumor growth inhibition vs control,A375/TxR xenografts; 4 mg/kg IV,76.6%
same,"Ki67 and CD31 expression in tumors, IHC",A375/TxR xenografts; 2 and 4 mg/kg,significantly decreased
same,spontaneous liver metastasis,A375/TxR xenografts; [9],significant inhibition of lung or liver metastasis
same,spontaneous lung metastasis,A375/TxR xenografts; [9],significant inhibition of lung or liver metastasis
same,mouse body weight during therapy,A375/TxR xenografts; all doses tested,no body weight loss observed
same,"tumor necrosis, H&E","A375/TxR xenografts; mouse, in vivo",more necrotic cells in 5v-treated tumors
same,IC50,RPMI-7951,0.5 ± 0.1 nM
same,migration of A375/TxR cells,A375/TxR cells [2],remarkable potency in inhibiting the cell migration of A375/TxR cells
same,IC50,MDA-MB-468,0.8 ± 0.1 nM
same,colony formation of A375/TxR cells,A375/TxR cells [3],inhibit the proliferation of A375/TxR cell colonies in a concentration-dependent manner
same,Metabolic stability in rat t1/2,[4],3.6 min
same,half-life at 1 μg/mL,in vitro [5],24.7 min
same,microsomal CLint at 1 μg/mL,in vitro [5],28.1 µL/min/mg
same,IC50,"A375/TxR; Table 2, paclitaxel-resistant",0.3 ± 0.03 nM
same,IC50,"MDA-MB-231; MDA-MB-231, read-out: IC50 (nM) Breast Cancer MDA-MB-231, Table 6",2.6 ± 0.5 nM
same,IC50,"MDA-MB-231; MDA-MB-231, read-out: IC50 (nM) Breast MDA-MB-231, Table 1",0.7 ± 0.1 nM
same,IC50,MDA-MB-231; [10],1 to 2.2 nM
same,IC50,MDA-MB-231; [11],1 ± 0.2 nM
same,logP,logP,2.39
same,IC50,"MDA-MB-231/TxR; read-out: IC50 ± SEM (nM) MDA-MB-231/TxR, Table 2, paclitaxel-resistant",0.6 ± 0.1 nM
same,IC50,"M14; M14, read-out: IC50 (nM) Melanoma Cancer M14",1.5 ± 0.3 nM
same,IC50,M14; [12],0.6 ± 0.1 nM
same,IC50,M14; [13],0.3 ± 0.04 nM
same,IC50,[6]; [14],0.3 to 5 nM
same,IC50,"PANC-1; Table 6, read-out: IC50 (nM) Pancreatic cancer PANC-1",3.7 ± 0.7 nM
same,IC50,[7],0.4 to 26 nM
same,IC50,MDA-MB-231/VxR; [15],1.2 ± 0.3 nM
same,IC50,MDA-MB-453; [16],0.43 ± 0.1 nM
same,IC50,"MDA-MB-453; Table 6, read-out: IC50 (nM) Breast Cancer MDA-MB-453",1.3 ± 0.5 nM
"COc1ccc2c(c1)NC(=O)CN2c1nc(C)nc2c1CCC2 [Compound 5m, 7-methoxy-4-(2-methyl-6,7-dihydro-5H-cyclopenta[d]pyrimidin-4-yl)-3,4-dihydroquinoxalin-2(1H)-one]",IC50,M14/LCC6MDR1,1.4 ± 0.3 nM
same,IC50,DU-145/VxR,3.7 ± 0.6 nM
same,CLint scaled at 1 μg/mL,in vitro [1],48 mL/min/kg
same,decrease of final tumor volume vs vehicle,"A375/TxR xenografts; 2.5 mg/kg IV, 7 doses within 24 days",64.6%
same,IC50,RPMI-7951,1.5 ± 0.4 nM
same,migration of A375/TxR cells,A375/TxR cells [2],markedly inhibited the migration of A375/TxR cells
same,IC50,MDA-MB-468,1.8 ± 0.4 nM
same,colony formation of A375/TxR cells,A375/TxR cells [3],"completely inhibited the colony formation at high dose, i.e., 2 nM"
same,Metabolic stability in rat t1/2,[4],8.0 min
same,Metabolic stability in rat t1/2 (min),[4],7.97 (0.7) min
same,CLint scaled at 1 μg/mL,in vitro [5],13 mL/min/kg
same,IC50,A375/TxR,1.1 nM
same,IC50,MDA-MB-231; [10],1 to 2.2 nM
same,IC50,MDA-MB-231; [11],1.7 ± 0.4 nM
same,logP,logP,2.96
same,IC50,MDA-MB-231/TxR; read-out: IC50 ± SEM (nM) MDA-MB-231/TxR,1.5 ± 0.3 nM
same,IC50,M14; [12],1.4 ± 0.4 nM
same,IC50,M14; [13],1.3 ± 0.2 nM
same,IC50,"[6]; melanoma, breast and lung cancer cell lines, read-out: IC50 values, range against regular and paclitaxel-resistant lines",1 to 5 nM
same,IC50,[6]; [14],0.3 to 5 nM
same,IC50,"PANC-1; Example 7, FIG. 20, read-out: calculated IC50, PANC-1 cells",2.7 nM
same,mice having visible tumor,[8],1 of 5
same,IC50,[7],0.4 to 26 nM
same,IC50,"MDA-MB-231/VxR; MDA-MB-231, 72 h, read-out: IC50 in Compound 17ya resistant MDA-MD-231/VxR cells",1.2 to 2.9 nM
same,IC50,MDA-MB-231/VxR; [15],2.3 ± 0.4 nM
same,IC50,MDA-MB-453; [16],0.5 ± 0.1 nM
